Results reported in patent US9285319B2, “Nucleic acid base analogs with quenching and fluorescent activities and applications thereof” (RIKEN, priority 2010, dated 2016).
Like-named read-outs stand apart in the source and are kept apart here.

Columns and labels:
[1] = Fluorescence intensity of fluorescent molecule (Cy3) linked to Px base having a quenching activity; type: physicochemical; details: free substrate
[2] = target: T1, Klenow fragment not having exonuclease activity (KF exo−) (Escherichia coli, UniProt P00582, D355A/E357A); type: biochemical; details: for Km / Vmax: 37° C., SD in parentheses
T1 construct: a Klenow fragment not having exonuclease activity; purchased Amersham USB
Protocol: An experiment of single-base incorporation by a Klenow fragment was performed with reference to documents (Kimoto, M., Yokoyama, S., Hirao, I., Biotechnol. Lett., 2004, 26, 999-1005; Petruska, J., Goodman, M. F., Boosalis, M. S., Sowers, L. C., Cheong, C., Tinoco, I., Proc. Natl. Acad. Sci. USA, 1988, 85, 6252-6256; Goodman, M. F., Creighton, S., Bloom, L. B., Petruska, J., Crit. Rev. Biochem. Mol. Biol., 1993, 28, 83-126; Morales, J. C., Kool, E. T., Nat. Struct. Biol., 1998, 5, 950-954).
Specifically, a primer (20-mer, 5′-[…]-3′ (SEQ ID NO: 4) or 5′-[…]-3′ (SEQ ID NO: 5)) labeled with 6-carboxyfluorescein at the 5′ end and a template DNA (35-mer, 5′-AGCTCTDss[…]-3′ (SEQ ID NO: 6) or 5′-[…]-3′ (N=Pn, A, G, C, or T) (SEQ ID NO: 7)) were heated in a 100 mM Tris-HCl buffer (pH 7.5) containing 20 mM MgCl2, 2 mM DTT, and 100 μg/mL bovine serum albumin (BSA) at 95° C. and were then gradually cooled to 4° C. for annealing to form a double strand of the template and the primer.
An enzyme solution (2 μL) of a Klenow fragment not having exonuclease activity (KF exo−, Amersham USB) was added to 5 μL of each primer-template double-stranded DNA solution (10 μM). The mixture was incubated at 37° C. for 2 minutes to form a DNA/enzyme complex. To this solution, 3 μL of each substrate solution, i.e., nucleoside triphosphate solution (Dss, Pn, or one of A, G, C, and T, 1 μM to 5 mM) was added, followed by an enzyme reaction at 37° C. (for 1 to 35 minutes). The reaction was terminated by adding 10 μL of a 20 mM EDTA solution in 95% formamide (stop solution) to the reaction solution and heating the solution at 75° C. for 3 minutes.
The reaction conditions are summarized as follows. For each solution (10 μL), 5 μM primer-template double strand, 5 to 50 nM enzyme, and 0.3 to 1500 μM substrate are used. The solution (10 μL) contains 50 mM Tris-HCl (pH 7.5), 10 mM MgCl2, 1 mM DTT, and 0.05 mg/mL BSA. The reaction is performed at 37° C. for 1 to 35 minutes.
A part of the reaction solution was diluted with the stop solution, and 0.5 μL of the diluted reaction solution was mixed with 3 μL of a loading solution (deionized formamide: 50 mg/mL blue dextran solution containing 25 mM EDTA=5:1). The solution mixture was heated at 90° C. for 2 minutes and then was rapidly cooled on ice. About 0.5 μL of the solution was loaded on every other lane of a sequencing gel for electrophoresis. The sequencing gel (36 cm WTR) was composed of 6 M urea, 10% polyacrylamide (acrylamide:bisacrylamide=19:1), and 0.5×TBE. The buffer used for the electrophoresis was 0.5×TBE. The Run Module was GS Run 36C-2400. The time for electrophoresis was about 1 hour, and the peak patterns of the reaction products were analyzed and quantitatively measured by an automated ABI377 DNA sequencer equipped with GeneScan software (version 3.0).
The proportion of the primer extended by one nucleotide was determined from the peak area of the unreacted primer fragment and the peak area of the DNA fragment extended by single-base incorporation, and enzymatic parameters Vmax and KM were calculated by Hanes-Woolf plot (Goodman, M. F., Creighton, S., Bloom, L. B., Petruska, J., Crit. Rev. Biochem. Mol. Biol., 1993, 28, 83-126). The Vmax value was standardized to 20 nM enzyme concentration and 5 μM double strand concentration for various enzyme and double-strand concentrations used.

[3] = template N = T, primer 5′-ACTCACTATAGGGAGCTTCT
[4] = template N = Dss, primer 5′-[…]
[5] = template N = A, primer 5′-ACTCACTATAGGGAGGAAGA

T1 sequence (P00582 324-928 D355A/E357A): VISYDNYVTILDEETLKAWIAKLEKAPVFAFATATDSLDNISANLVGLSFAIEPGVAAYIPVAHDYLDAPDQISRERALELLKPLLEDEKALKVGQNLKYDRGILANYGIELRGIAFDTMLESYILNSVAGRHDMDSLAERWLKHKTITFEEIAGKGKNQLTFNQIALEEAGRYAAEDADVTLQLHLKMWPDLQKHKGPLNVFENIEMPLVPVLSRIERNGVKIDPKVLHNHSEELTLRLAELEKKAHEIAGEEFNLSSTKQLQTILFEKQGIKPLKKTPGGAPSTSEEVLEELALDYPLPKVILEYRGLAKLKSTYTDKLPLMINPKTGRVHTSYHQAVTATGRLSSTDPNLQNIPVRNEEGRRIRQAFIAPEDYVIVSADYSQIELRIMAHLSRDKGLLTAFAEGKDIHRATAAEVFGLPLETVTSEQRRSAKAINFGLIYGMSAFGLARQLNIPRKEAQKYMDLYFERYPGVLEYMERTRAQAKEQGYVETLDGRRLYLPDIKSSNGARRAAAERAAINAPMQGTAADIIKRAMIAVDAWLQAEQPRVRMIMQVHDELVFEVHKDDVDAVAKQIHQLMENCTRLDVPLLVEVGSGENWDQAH

1-(2-deoxy-β-D-ribofuranosyl-4-[3-(Cy3-carboxamide hexanamide)-1-propynyl]-2-nitropyrrole 5′-triphosphate [Cy3-hx-dPxTP]
fluorescence intensity of fluorescent molecule quenched when linked to Px base [1]: about 30%

Nc1ncnc2c1ncn2[C@H]1C[C@H](O)[C@@H](COP(=O)(O)OP(=O)(O)OP(=O)(O)O)O1 [dATP, deoxyriboadenosine triphosphate]
Efficiency (Vmax/KM) [2, 3]: 4.0 × 10^6 % min^−1 M^−1
Km [2, 3]: 810 nM
Vmax [2, 3]: 3.3 (1.8) % min^−1

O=[N+]([O-])c1cccn1[C@H]1C[C@H](O)[C@@H](COP(=O)(O)OP(=O)(O)OP(=O)(O)O)O1 [dPnTP]
Efficiency (Vmax/KM) [2, 4]: 1.1 × 10^5 % min^−1 M^−1
Km [2, 4]: 100000 nM
Vmax [2, 4]: 11 (3) % min^−1

deoxyribothymidine triphosphate [dTTP]
Efficiency (Vmax/KM) [2, 5]: 4.0 × 10^6 % min^−1 M^−1
Km [2, 5]: 700 nM
Vmax [2, 5]: 2.8 (1.5) % min^−1
